According to PubChem BioAssay (NCI):
“And” between values parts separate entries of the source, which are not always exact repeats. Equal values may be shown once.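 1) Cells in 96-well plates. 2) Compound, 48 h, 5 concentrations. 3) Linear interpolation between surrounding doses. 4) Unreached endpoint = highest concentration. GI50 = concentration required for 50% inhibition of growth. At the TGI there is no net growth.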

What was measured:
Test in all cases: NCI tumour cell line growth inhibition, 48 h
DMS 114 small cell lung = test system: DMS 114 small cell lung
HCC-2998 colon = test system: HCC-2998 colon
HOP-62 NSCLC = test system: HOP-62 NSCLC
M19-MEL melanoma = test system: M19-MEL melanoma
MALME-3M melanoma = test system: MALME-3M melanoma
SK-MEL-5 melanoma = test system: SK-MEL-5 melanoma
SN12C renal = test system: SN12C renal
UO-31 renal = test system: UO-31 renal
HCT-116 colon = test system: HCT-116 colon
HOP-92 NSCLC = test system: HOP-92 NSCLC

Row | SMILES | TGI (DMS 114 small cell lung) | TGI (HCC-2998 colon) | TGI (HOP-62 NSCLC) | TGI (M19-MEL melanoma) | TGI (MALME-3M melanoma) | TGI (SK-MEL-5 melanoma) | TGI (SN12C renal) | TGI (UO-31 renal) | TGI (HCT-116 colon) | TGI (HOP-92 NSCLC) | GI50 (HCT-116 colon) | GI50 (HOP-62 NSCLC) | GI50 (HOP-92 NSCLC) | GI50 (MALME-3M melanoma) | GI50 (SK-MEL-5 melanoma) | GI50 (SN12C renal) | GI50 (HCC-2998 colon) | GI50 (M19-MEL melanoma)
1 | CC1=C(C(=O)Nc2ccccc2C)C(c2ccc([N+](=O)[O-])cc2)C(C(=O)Nc2ccccc2C)=C(C)N1 | > 100 µM | > 100 µM | > 100 µM | > 100 µM | > 100 µM | > 100 µM | > 100 µM | > 100 µM | – | – | – | – | – | – | – | – | – | –
2 | CCc1cccc(CC)c1NC(=S)NC(=O)c1ccc(Br)cc1 | > 100 µM | > 100 µM | > 100 µM | > 100 µM | > 77.1 µM | > 71.6 µM | > 81.4 µM | > 100 µM | > 100 µM | 64.6 µM | – | – | – | – | – | – | – | –
3 | CCCCCCCCCCCCCC/C(C(=O)OC)=C(/O)C(=O)OCC | > 100 µM | 37.3 µM | > 100 µM | > 100 µM | > 100 µM | > 100 µM | > 100 µM | 53.5 µM | > 100 µM | 54.5 µM | – | – | – | – | – | – | – | –
4 | CC(=O)O[C@H]1[C@@H]2[C@@H]3[C@@H](C[C@H]1C)[C@@H](C)CO[C@@]1(C)CC/C=C(/C)C[C@@H]2O[C@@H]31 | > 100 µM | > 100 µM | > 100 µM | > 100 µM | > 100 µM | > 100 µM | > 100 µM | > 100 µM | > 100 µM | > 100 µM | – | – | – | – | – | – | – | –
5 | Cc1ccc(NS(=O)(=O)c2cc(C(C)(C)C)ccc2OCCOCCOCCOc2ccc(C(C)(C)C)cc2S(=O)(=O)Nc2ccc(C)cc2)cc1 | > 100 µM | > 100 µM | > 100 µM | > 100 µM | > 100 µM | > 100 µM | > 100 µM | > 100 µM | > 100 µM | > 100 µM | – | – | – | – | – | – | – | –
6 | CO[C@H]1[C@H](O)[C@H](O[C@H]2CC[C@@]3(C)[C@H](CC[C@@H]4[C@@H]3CC[C@]3(C)[C@@H](C5=CC(=O)OC5)CC[C@]43O)C2)O[C@@H](C)[C@@H]1O | 0.00335 µM | 0.0584 µM and 0.0399 µM | – | 0.016 µM | 0.000721 µM | 0.00194 µM | 0.00112 µM and < 0.0107 µM | 0.00201 µM | 0.00229 µM and < 0.0113 µM | 0.00571 µM and 0.0336 µM | – | – | – | – | – | – | – | –
7 | C=C(CN(CC(=C)C(=O)c1ccccc1)C(C)(C)C)C(=O)c1ccccc1 | 33.5 µM | 33.3 µM | – | 30 µM | 29.7 µM | 31.1 µM | 32.5 µM | 24.3 µM | 26.8 µM | 15 µM | – | – | – | – | – | – | – | –
8 | CC1C=C(OC(=O)c2ccccc2)C(=O)C(n2cc(F)c(=O)n(C(=O)c3ccccc3)c2=O)O1 (stereo not given) | > 100 µM | – | > 100 µM | > 100 µM | 95.7 µM | > 100 µM | > 100 µM | > 100 µM | > 100 µM | > 100 µM | – | – | – | – | – | – | – | –
9 | Cn1cc2c(n1)c(N/N=C/c1ccccc1)nn1nnnc21 | > 100 µM | > 100 µM | > 100 µM | > 100 µM | > 100 µM | > 100 µM | > 100 µM | > 100 µM | > 100 µM | > 100 µM | – | – | – | – | – | – | – | –
10 | CCC(=O)OC1CCn2c1nc1c2C(=O)C(C)=C(N2CC2)C1=O (stereo not given) | 0.522 µM | 0.214 µM and 0.18 µM | 0.0431 µM and 0.143 µM | 0.345 µM | 0.0961 µM and 0.114 µM | 0.0765 µM and 0.319 µM | 0.119 µM and 0.333 µM | 0.136 µM | 0.779 µM and 0.409 µM | 7.99 µM and 6.33 µM | 0.0229 µM | 0.0189 µM | 2.61 µM | 0.0307 µM | 0.165 µM | 0.0285 µM | – | –
11 | COC(=O)c1ccccc1NC(=O)C(=O)CC(=O)c1ccccc1NC1=CC(=O)C(=O)c2ccccc21 | 5.33 µM | 66.7 µM | > 74.8 µM | 4.49 µM | 11.1 µM | 14.2 µM | 15.1 µM | 69 µM | 20 µM | 32.5 µM | – | – | – | – | – | – | – | –
12 | N/N=C1\c2ccccc2C2/C(=N\N)c3ccccc3C12 (stereo not given) | > 100 µM | > 100 µM | – | > 100 µM | > 100 µM | > 100 µM | > 100 µM | – | – | > 100 µM | – | – | – | – | – | – | – | –
13 | NC(=O)c1[nH]nc(C2OC(CO)C(O)C2O)c1O (stereo not given) | 858 µM | 378 µM | 478 µM | > 3890 µM | 2660 µM | 4090 µM | 819 µM | 1020 µM | 3770 µM | 279 µM | – | – | – | – | – | – | – | –
14 | CCOc1ccccc1NC(=O)CCc1nnc2s/c(=C\CCc3ccccc3)c(=O)n12 | > 100 µM | > 100 µM | > 100 µM | > 100 µM | > 100 µM | > 100 µM | > 100 µM | > 100 µM | > 100 µM | > 100 µM | – | – | – | – | – | – | – | –
15 | Cc1ccc(S(=O)(=O)N2CCC3(C(/C=C/c4ccccc4)=Nc4ccccc43)C2c2ccccc2)cc1 (stereo not given) | > 100 µM | > 100 µM | > 100 µM | > 100 µM | > 100 µM | > 100 µM | > 100 µM | > 100 µM | > 100 µM | > 100 µM | – | – | – | – | – | – | – | –
16 | CC1CCCC(C(O)CC2CC(=O)N(c3ccccc3)C(=O)C2)C1=O (stereo not given) | > 100 µM | > 100 µM | > 100 µM | > 100 µM | > 100 µM | – | > 100 µM | > 100 µM | > 100 µM | > 100 µM | – | – | – | – | – | – | – | –
17 | C=CCNC1=C(C(=O)OCC)C(=O)CO1 | > 100 µM | > 100 µM | – | > 100 µM | > 100 µM | > 100 µM | > 100 µM | > 100 µM | > 100 µM | > 100 µM | – | – | – | – | – | – | – | –
18 | CN(C)c1ccc(/C=C2\CNC/C(=C\c3ccc(N(C)C)cc3)C2=O)cc1 | 34.7 µM | > 100 µM | > 100 µM | 46.8 µM | > 100 µM | > 100 µM | 75.4 µM | > 100 µM | 35.1 µM | 55.2 µM | – | – | – | – | – | – | – | –
19 | CC(=O)OCC1OC(OC2CC3C(C)(C)C(OC(C)=O)CC[C@]3(C)C3CCC45CC4(CC[C@H]5C(C)CC(O)C4OC4(C)C)[C@]23C)C(O)C(O)C1O (stereo not given in full) | 5.46 µM and 4.32 µM | 2.71 µM and 4.26 µM | 12.6 µM and 5.37 µM | 6.5 µM and 6.19 µM | 16.6 µM and 8.6 µM | 5.79 µM | 8.75 µM and 14.9 µM | 11.1 µM and 14.4 µM | 3.46 µM and 4.42 µM | 6.33 µM | 2.14 µM | 2.39 µM | – | 4.67 µM | – | 4.44 µM | 2.68 µM | 2.35 µM
20 | O=C1CC2CCCCC2=C1O (stereo not given) | > 100 µM | > 100 µM | > 100 µM | > 100 µM | > 100 µM | > 100 µM | > 100 µM | > 100 µM | > 100 µM | – | – | – | – | – | – | – | – | –
21 | O=C(CC/C(C/C(=N/O)c1ccc(F)cc1)=N/O)N(Cc1ccccc1)Cc1ccccc1 | > 100 µM | > 100 µM | > 100 µM | > 100 µM | > 100 µM | > 100 µM | > 100 µM | > 100 µM | > 100 µM | > 100 µM | – | – | – | – | – | – | – | –
22 | CCOP(=O)(CC(=O)C1=C(O)C(CCCNC(=O)OC(C)(C)C)N(Cc2ccc(OC)c(OC)c2)C1=O)OCC (stereo not given) | > 100 µM | > 100 µM | > 100 µM | > 100 µM | > 100 µM | > 100 µM | > 100 µM | > 100 µM | > 100 µM | – | – | – | – | – | – | – | – | –
